Values after ≈ are worked out from the molar mass of the structure shown. Blank lines part the entries; values can stand above or below the compound they belong to.
How the values were obtained:
[1] = tested on: Staphylococcus aureus Tour; experiment: In vitro antibacterial activity, two-fold dilution method in microtiter system (MIC); assay type: cell-based
Experimental: The in vitro antibacterial activity of deglucoteicoplanin was determined using the two-fold dilution method in microtiter system. Todd-Hewitt broth (Difco) was used for streptococci and Isosensitest broth (Oxoid) for staphylococci and gram-negative bacteria. […]

[2] = tested on: Streptococcus faecalis ATCC 7080; experiment: as above; assay type: cell-based
Experimental: (§1) The in vitro antibacterial activity of deglucoteicoplanin was determined using the two-fold dilution method in microtiter system. Todd-Hewitt broth (Difco) was used for streptococci and Isosensitest broth (Oxoid) for staphylococci and gram-negative bacteria. Overnight broth cultures were diluted so that the final inoculum was about 10^4 colony-forming units per ml (cfu/ml).

[3] = tested on: Escherichia coli SKF 12140; experiment: as above; assay type: cell-based
Experimental: as §1

[4] = tested on: Streptococcus pyogenes C 203 SFK 13400; experiment: as above; assay type: cell-based
Experimental: as §1

[5] = tested on: Staphylococcus aureus ATCC 6538; experiment: as above; assay type: cell-based; settings: inoculum about 10^4 cfu/ml, 18-24 hours at 37° C.
Experimental: as §1

[6] = tested on: Pseudomonas aeruginosa ATCC 10145; experiment: as above; assay type: cell-based
Experimental: as §1

[7] = tested on: Streptococcus pneumoniae UC 41; experiment: as above; assay type: cell-based
Experimental: as §1

[8] = tested on: Proteus vulgaris X 19 H ATCC 881; experiment: as above; assay type: cell-based
Experimental: as §1

[9] = tested on: Staphylococcus epidermidis ATCC 12228; experiment: as above; assay type: cell-based
Experimental: as §1

[10] = tested on: staphylococci (S. aureus, S. epidermidis); experiment: In vitro antibacterial activity against staphylococci (summary); assay type: cell-based; settings: in words
Experimental: as §1

[11] = tested on: clinical isolate methicillin-resistant staphylococci (S. aureus, S. epidermidis); experiment: In vitro antibacterial activity against methicillin-resistant staphylococci (summary); assay type: cell-based; settings: in words
Experimental: as §1

Solubility = assay type: physicochemical
S. epidermidis 785 = experiment: MIC against clinical isolate methicillin-resistant staphylococci; assay type: cell-based; parameters: unit not given here; settings: S. epidermidis 785, clinical isolate methicillin-resistant
Experimental: as §1

S. aureus L 1096 = experiment: as above; assay type: cell-based; parameters: unit not given here; settings: S. aureus L 1096, clinical isolate methicillin-resistant
Experimental: as §1

S. epidermidis 835 = experiment: as above; assay type: cell-based; parameters: unit not given here; settings: S. epidermidis 835, clinical isolate methicillin-resistant
Experimental: as §1

S. aureus L 1097 = experiment: as above; assay type: cell-based; parameters: unit not given here; settings: S. aureus L 1097, clinical isolate methicillin-resistant
Experimental: as §1

S. epidermidis 1142 = experiment: as above; assay type: cell-based; parameters: unit not given here; settings: S. epidermidis 1142, clinical isolate methicillin-resistant
Experimental: as §1

S. epidermidis 1372 = experiment: as above; assay type: cell-based; parameters: unit not given here; settings: S. epidermidis 1372, clinical isolate methicillin-resistant
Experimental: as §1

S. aureus L 1526 = experiment: as above; assay type: cell-based; parameters: unit not given here; settings: S. aureus L 1526, clinical isolate methicillin-resistant
Experimental: as §1

S. epidermidis 1378 = experiment: as above; assay type: cell-based; parameters: unit not given here; settings: S. epidermidis 1378, clinical isolate methicillin-resistant
Experimental: as §1

S. aureus L 1524 = experiment: as above; assay type: cell-based; parameters: unit not given here; settings: S. aureus L 1524, clinical isolate methicillin-resistant
Experimental: as §1

S. pyogenes = experiment: Experimental infection in mice infected with S. pyogenes; assay type: in vivo; settings: subcutaneous administration
[12] = Potentiometric titration profile; assay type: physicochemical; settings: methylcellosolve/water 4:1, titration with 0.01N NaOH after excess of 0.01N HCl

MIC ([1]; Inoculum: 10^6 cfu/ml): 0.2 µg/mL (≈ 0.167 µM)
MIC ([1]; in the presence of 30% bovine serum): 0.2 µg/mL
MIC ([1]; inoculum about 10^4 cfu/ml): 0.05 µg/mL (≈ 0.0417 µM)
MIC [2]: 0.1 µg/mL (≈ 0.0834 µM)
MIC [3]: 25 µg/mL (≈ 20.9 µM)
MIC [4]: 0.05 µg/mL (≈ 0.0417 µM)
MIC [5]: 0.025 µg/mL (≈ 0.0209 µM)
MIC [6]: > 100 µg/mL
MIC [7]: 0.05 µg/mL (≈ 0.0417 µM)
MIC [8]: 50 µg/mL (≈ 41.7 µM)
MIC [9]: 0.0125 µg/mL (≈ 0.0104 µM)
solubility (Solubility; in ethyl alcohol and dimethylformamide): slightly soluble
solubility (Solubility; in water at a pH higher than 9 and aqueous methanol, ethanol and acetone): soluble
MIC (S. epidermidis 785): 0.05
MIC (S. aureus L 1096): 0.05
MIC (S. epidermidis 835): 0.05
MIC (S. aureus L 1097): 0.05
MIC (S. epidermidis 1142): 0.05
MIC (S. epidermidis 1372): 0.2
MIC (S. aureus L 1526): 0.05
MIC (S. epidermidis 1378): 0.05
MIC (S. aureus L 1524): 0.1
SMILES: N[C@H]1C(=O)N[C@@H]2Cc3ccc(c(Cl)c3)Oc3cc4cc(c3O)Oc3ccc(cc3Cl)[C@@H](O)[C@@H]3NC(=O)[C@H](NC(=O)[C@@H]4NC(=O)[C@@H](NC2=O)c2cc(O)cc(c2)Oc2cc1ccc2O)c1ccc(O)c(c1)-c1c(O)cc(O)cc1[C@@H](C(=O)O)NC3=O [deglucoteicoplanin]
activity against staphylococci (S. aureus, S. epidermidis) [10]: very active
activity against clinical isolate methicillin-resistant staphylococci [11]: very effective
ED50 (S. pyogenes): 0.95 mg/kg

solubility (Solubility; in methanol): slightly soluble
solubility (Solubility; in n-hexane, ethyl ether and acetone): almost insoluble
solubility (Solubility; in water at pH>8.0, in dimethylformamide, dimethylsulfoxide, propyleneglycol and methylcellosolve): freely soluble
pH1/2 value, third titration slope ([12]; five equivalents): 11
pH1/2 value, first titration slope ([12]; one equivalent): 5.0
pH1/2 value, second titration slope ([12]; one equivalent): 7.0
SMILES: CC(=O)N[C@@H]1[C@@H](O[C@H]2c3ccc(c(Cl)c3)Oc3cc4cc(c3O)Oc3ccc(cc3Cl)C[C@@H]3NC(=O)[C@@H](N)c5ccc(O)c(c5)Oc5cc(O)cc(c5)[C@@H](NC3=O)C(=O)N[C@@H]4C(=O)N[C@@H]3C(=O)N[C@H]2C(=O)N[C@@H](C(=O)O)c2cc(O)cc(O)c2-c2cc3ccc2O)O[C@@H](CO)[C@H](O)[C@H]1O (stereo in doubt) [antibiotic L 17046]

— patent publication US4629781A, “Chemical process for preparing L 17392 (deglucoteicoplanin) and its salts” (Gruppo Lepetit S.p.A., priority 1983, dated 1986)
